Data: patent publication US10028992B2, “Methods of treating muscular dystrophy” (BOARD OF REGENTS OF THE NEVADA SYSTEM OF HIGHER EDUCATION …, priority 2012, dated 2018)
Like-named read-outs stand apart in the source and are kept apart here.

System: α7 integrin promoter
Test: muscle cell-based assay: α7βgal+/− myoblasts/myotubes, LacZ reporter, β-galactosidase cleavage of FDG
Design: species or system mouse
In short: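 Fluorescein generated from FDG by β-galactosidase reports α7 integrin promoter activity in differentiated myoblasts from α7+/− LacZ knock-in pups. Screening hits then went to dose-response, western blotting and a myostatin counterscreen.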

SMILES: Cc1ccc(N2C(=O)C3NN=C(C(=O)OCc4ccccc4)C3C2=O)cc1 (stereo not drawn) [drawing 392]
- Results in a α7+/− β-galactosidase assay, Myotubes, 0.5 uM (Myotubes, compound at 0.5 uM): −0.03749
- Results in a α7+/− β-galactosidase assay, Myotubes, 1 uM (Myotubes, compound at 1 uM): −0.0238
- Results in a α7+/− β-galactosidase assay, Myotubes, 5 uM (Myotubes, compound at 5 uM): −0.168
- Results in a α7+/− β-galactosidase assay, Myotubes, 10 uM (Myotubes, compound at 10 uM): −0.2332
- Results in a α7+/− β-galactosidase assay, Myotubes, 20 uM (Myotubes, compound at 20 uM): 0.00778
- Results in a α7+/− β-galactosidase assay, Myotubes, 40 uM (Myotubes, compound at 40 uM): −0.01262

SMILES: Cc1cc([N+](=O)[O-])ccc1NC(=O)C(C)N1CCN(c2ccccn2)CC1 (stereo not drawn) [drawing 393]
- Results in a α7+/− β-galactosidase assay, Myotubes, 0.5 uM (Myotubes, compound at 0.5 uM): 0.0774
- Results in a α7+/− β-galactosidase assay, Myotubes, 1 uM (Myotubes, compound at 1 uM): 0.107
- Results in a α7+/− β-galactosidase assay, Myotubes, 5 uM (Myotubes, compound at 5 uM): −0.1042
- Results in a α7+/− β-galactosidase assay, Myotubes, 10 uM (Myotubes, compound at 10 uM): −0.1154
- Results in a α7+/− β-galactosidase assay, Myotubes, 20 uM (Myotubes, compound at 20 uM): −0.297
- Results in a α7+/− β-galactosidase assay, Myotubes, 40 uM (Myotubes, compound at 40 uM): −0.3729

SMILES: CCc1nc(/C=C2\C(=O)Nc3ccccc32)c[nH]1 [drawing 394]
- Results in a α7+/− β-galactosidase assay, Myotubes, 0.5 uM (Myotubes, compound at 0.5 uM): 0.2902
- Results in a α7+/− β-galactosidase assay, Myotubes, 1 uM (Myotubes, compound at 1 uM): 0.2582
- Results in a α7+/− β-galactosidase assay, Myotubes, 5 uM (Myotubes, compound at 5 uM): −0.08702
- Results in a α7+/− β-galactosidase assay, Myotubes, 10 uM (Myotubes, compound at 10 uM): −0.09062
- Results in a α7+/− β-galactosidase assay, Myotubes, 20 uM (Myotubes, compound at 20 uM): −0.0001
- Results in a α7+/− β-galactosidase assay, Myotubes, 40 uM (Myotubes, compound at 40 uM): −0.1577

SMILES: O=C(Cn1nc(-c2ccc(Cl)cc2)ccc1=O)N1CCC2(CC1)OCCO2 [drawing 395]
- Results in a α7+/− β-galactosidase assay, Myotubes, 0.5 uM: 0.1803
- Results in a α7+/− β-galactosidase assay, Myotubes, 1 uM: 0.1627
- Results in a α7+/− β-galactosidase assay, Myotubes, 5 uM: −0.1502
- Results in a α7+/− β-galactosidase assay, Myotubes, 10 uM: −0.1782
- Results in a α7+/− β-galactosidase assay, Myotubes, 20 uM: −0.08792
- Results in a α7+/− β-galactosidase assay, Myotubes, 40 uM: −0.2213

SMILES: CCOC(=O)C1(Cc2cccc(Cl)c2)CCCN(C(=O)CCSC)C1 (stereo not drawn) [drawing 396]
- Results in a α7+/− β-galactosidase assay, Myotubes, 0.5 uM (Myotubes, compound at 0.5 uM): −0.05788
- Results in a α7+/− β-galactosidase assay, Myotubes, 1 uM (Myotubes, compound at 1 uM): 0.02732
- Results in a α7+/− β-galactosidase assay, Myotubes, 5 uM (Myotubes, compound at 5 uM): −0.3174
- Results in a α7+/− β-galactosidase assay, Myotubes, 10 uM (Myotubes, compound at 10 uM): −0.211
- Results in a α7+/− β-galactosidase assay, Myotubes, 20 uM (Myotubes, compound at 20 uM): −0.1814
- Results in a α7+/− β-galactosidase assay, Myotubes, 40 uM (Myotubes, compound at 40 uM): −0.4242

SMILES: Cc1cccc2c(/N=N/c3ccc(S(=O)(=O)Nc4ccc(Cl)cc4)cc3[N+](=O)[O-])c(O)[nH]c12 [drawing 397]
- Results in a α7+/− β-galactosidase assay, Myotubes, 0.5 uM (Myotubes, compound at 0.5 uM): −0.03979
- Results in a α7+/− β-galactosidase assay, Myotubes, 1 uM (Myotubes, compound at 1 uM): −0.05535
- Results in a α7+/− β-galactosidase assay, Myotubes, 5 uM (Myotubes, compound at 5 uM): −0.02922
- Results in a α7+/− β-galactosidase assay, Myotubes, 10 uM (Myotubes, compound at 10 uM): 0.02994
- Results in a α7+/− β-galactosidase assay, Myotubes, 20 uM (Myotubes, compound at 20 uM): −0.2047
- Results in a α7+/− β-galactosidase assay, Myotubes, 40 uM (Myotubes, compound at 40 uM): −0.2727

SMILES: CC(C)c1ccc(OC(=O)c2cccc(S(=O)(=O)N3CCN(C)CC3)c2)cc1 [drawing 398]
- Results in a α7+/− β-galactosidase assay, Myotubes, 0.5 uM (Myotubes, compound at 0.5 uM): −0.02436
- Results in a α7+/− β-galactosidase assay, Myotubes, 1 uM (Myotubes, compound at 1 uM): 0.01638
- Results in a α7+/− β-galactosidase assay, Myotubes, 5 uM (Myotubes, compound at 5 uM): −0.2473
- Results in a α7+/− β-galactosidase assay, Myotubes, 10 uM (Myotubes, compound at 10 uM): 0.3054
- Results in a α7+/− β-galactosidase assay, Myotubes, 20 uM (Myotubes, compound at 20 uM): −0.1863
- Results in a α7+/− β-galactosidase assay, Myotubes, 40 uM (Myotubes, compound at 40 uM): −0.2246

SMILES: CC(C)c1ccc(NC(=O)CN2C(=O)c3ccccc3S2(=O)=O)cc1 [drawing 399]
- Results in a α7+/− β-galactosidase assay, Myotubes, 0.5 uM (Myotubes, compound at 0.5 uM): −0.1815
- Results in a α7+/− β-galactosidase assay, Myotubes, 1 uM (Myotubes, compound at 1 uM): −0.0433
- Results in a α7+/− β-galactosidase assay, Myotubes, 5 uM (Myotubes, compound at 5 uM): 0.02954
- Results in a α7+/− β-galactosidase assay, Myotubes, 10 uM (Myotubes, compound at 10 uM): −0.2491
- Results in a α7+/− β-galactosidase assay, Myotubes, 20 uM (Myotubes, compound at 20 uM): −0.1353
- Results in a α7+/− β-galactosidase assay, Myotubes, 40 uM (Myotubes, compound at 40 uM): −0.1392

SMILES: NC(=O)c1sc2nc3c(cc2c1N)CCC3 [drawing 400]
- Results in a α7+/− β-galactosidase assay, Myotubes, 0.5 uM (Myotubes, compound at 0.5 uM): −0.1099
- Results in a α7+/− β-galactosidase assay, Myotubes, 1 uM (Myotubes, compound at 1 uM): −0.1307
- Results in a α7+/− β-galactosidase assay, Myotubes, 5 uM (Myotubes, compound at 5 uM): −0.1528
- Results in a α7+/− β-galactosidase assay, Myotubes, 10 uM (Myotubes, compound at 10 uM): 0.5381
- Results in a α7+/− β-galactosidase assay, Myotubes, 20 uM (Myotubes, compound at 20 uM): 0.07998
- Results in a α7+/− β-galactosidase assay, Myotubes, 40 uM (Myotubes, compound at 40 uM): 0.08496

SMILES: O=C(Nc1ccccc1OC(=O)c1ccc(Cl)cc1)c1ccc(Cl)cc1 [drawing 401]
- Results in a α7+/− β-galactosidase assay, Myotubes, 0.5 uM (Myotubes, compound at 0.5 uM): −0.03464
- Results in a α7+/− β-galactosidase assay, Myotubes, 1 uM (Myotubes, compound at 1 uM): 0.02857
- Results in a α7+/− β-galactosidase assay, Myotubes, 5 uM (Myotubes, compound at 5 uM): −0.09525
- Results in a α7+/− β-galactosidase assay, Myotubes, 10 uM (Myotubes, compound at 10 uM): −0.1056
- Results in a α7+/− β-galactosidase assay, Myotubes, 20 uM (Myotubes, compound at 20 uM): −0.1495
- Results in a α7+/− β-galactosidase assay, Myotubes, 40 uM (Myotubes, compound at 40 uM): −0.3841
